# Starred links: 1 amine or outer side, 2 acyl side, 3 side chain; linkers in the order of their positions; H or OH if unused. Positions of bridges follow the written chain, without caps; N, C: chain ends. Non-standard residues stand in square brackets, D forms with d. Residues, ends and D or L forms follow the SMILES beside them. Trp(7-aza) = N[C@@H](Cc1c[nH]c2ncccc12)C(=O)O; pXylylene = c1cc(C[*:2])ccc1C[*:1]; Phg = N[C@H](C(=O)O)c1ccccc1; NMeS = CN[C@@H](CO)C(=O)O; Nva = CCC[C@H](N)C(=O)O
# How the values were obtained:
# C5 [1] = target: T1, C5 (Homo sapiens, UniProt P01031); assay: Competitive fluorescence polarization (FP) binding assay with probe R3076; set-up: purchased Complement Technology, Tyler, Tex
# Protocol: FP was used for screening competitive polypeptide inhibitors of the C5 protein. […] The BODIPY-TMR dye attached to the C-terminal lysine of the protein and the subsequent labeled probe was purified by HPLC.
# Human C5 protein was diluted to 200 nM in assay buffer, composed of TBS (EMD Millipore, Billerica, Mass.)+0.005% Triton-X (Sigma, Saint Louis, Mo.). 10 μl of assay buffer was added to all wells of a black, non-binding, 384-well assay plate (Greiner, Monroe, N.C.) and 10 μl of diluted C5 protein stock was added to experimental and designated control wells.
# Probe R3076 (SEQ ID NO: 40) was diluted 1 to 10 in DMSO (Life Technologies, Grand Island, N.Y.) and 30 μl of that stock was diluted in 3 ml of assay buffer to yield a 100 nM stock. 10 μl of this working stock was then added to each well in the assay plate. The assay plate was incubated at room temperature, protected from light, for 20 minutes to allow binding to reach equilibrium.
# Test articles listed in Table 7 were subsequently diluted in DMSO then assay buffer, comprising 10 2-fold dilutions and were then added to the assay plate in triplicate, rapidly. The assay plate was then incubated in the Paradigm (Molecular Devices, Sunnyvale, Calif.) plate reader for 60 minutes at 25° C.
# After incubation for 60 minutes, the plate was read using the Paradigm FP protocol (Molecular Devices, Sunnyvale, Calif.) and raw polarization values were imported into Graphpad Prism.
# [2] = Compound stability in human plasma; format: in vitro ADME
# Protocol: Compounds were assayed for stability in human plasma under the following conditions. Human plasma was obtained from Bioreclamation (Westbury, N.Y.) and collected in sodium heparin. Plasma was adjusted to pH 7.4. DMSO stocks at 10 mM concentration were prepared for the test compounds. Aliquots of the DMSO solutions were dosed into 1 mL of plasma, which had been pre-warmed to 37° C., at a final test compound concentration of 10 μM. The vials were kept in a benchtop THERMOMIXER® (Eppendorf, Hauppauge, N.Y.) for the duration of the experiment. Aliquots (100 μL) were taken at each timepoint and added to a 96-well plate that had been pre-filled with 300 μL of an acetonitrile solution containing mixture of the internal standards (metoprolol, propranolol and warfarin each at 500 ng/mL). […] Aliquots of the supernatant were removed and analyzed by LC-HRAMS.
# primate C5 protein = assay: Ex vivo hemolysis assay with cynomolgus plasma; format: cell-based, cynomolgus monkey
# Protocol: At each time-point, the hemolytic activity was determined as an indicator of active serum complement (see FIG. 4).
# [3] = Pharmacokinetic studies in rat (IV and SC); conditions: SC 30 mg/kg, combined R3152 and R3201
# From the text: In the figure, circles represent concentrations obtained after SC dose and squares represent concentrations obtained after IV dose.
# Blood samples were collected at indicated time points, processed into plasma, and analyzed for the indicated compound by LC-MS. […] Blood samples were collected at indicated time points, processed into plasma, and analyzed for the indicated compound by LC-MS.
# rat C5 [4] = assay: Ex vivo hemolysis assays, rat PK study; format: cell-based; conditions: rat plasma after dosing
# [5] = 3 mg/kg IV, cynomolgus monkey
# rat C5 [6] = assay: Binding to rat C5 (statement)
# C5 [7] = target: T1, C5; assay: Human hemolysis assay (RBC lysis assay using complete human sera); format: cell-based; set-up: with complete human sera (Complement Technology, Tyler Tex.) and polypeptides; tissue Complement Technology, Tyler Tex; host or cells: complete human serum; conditions: compounds tested in in vivo studies; average IC50, assay and unit inferred
# Protocol: Polypeptides listed in Table 3, as well as their optimized derivatives (see Table 4) were assessed for inhibitor activity using a red blood cell hemolysis assay. […] Human sera was rapidly thawed at 37° C. and then stored on ice until diluted into GVB++. Ten 6-fold serial dilutions of polypeptides (10 mM stock, DMSO) were performed in DMSO and then added to buffer. 50 μl of each polypeptide dilution was combined with sera and 100 μl of cells in individual wells of a 96-well tissue culture-treated clear microtitre plate (USA Scientific, Ocala, Fla.) and resuspended by pipetting. Samples were incubated at 37° C. for one hour. […] Data was fit with a log-logit formula producing a dose-response curve and IC50. As used herein, the term “IC50” refers to the half maximal inhibitory concentration, a value used to indicate the amount of the inhibitor needed to reduce a given reaction or process by half.
# The human constant light chain kappa and IgG2 constant heavy chain sequences were used for the constants regions of the antibody. This antibody was expressed from human embryonic kidney cells (HEK293) and purified by Protein A affinity chromatography. […] Human sera was rapidly thawed at 37° C. and then stored on ice until diluted into GVB++. Ten 6-fold serial dilutions of each compound (10 mM stock, DMSO) were performed in DMSO and then added to buffer. 50 μl of each compound dilution was combined with sera and 100 μl of cells in individual wells of a 96-well tissue culture-treated clear microtitre plate (USA Scientific, Ocala, Fla.) and resuspended by pipetting. Samples were incubated at 37° C. for one hour. […] Data was fit with a log-logit formula producing a dose-response curve and IC50 (see FIG. 11A).
# T1 sequence (P01031 678-1676 limits assumed): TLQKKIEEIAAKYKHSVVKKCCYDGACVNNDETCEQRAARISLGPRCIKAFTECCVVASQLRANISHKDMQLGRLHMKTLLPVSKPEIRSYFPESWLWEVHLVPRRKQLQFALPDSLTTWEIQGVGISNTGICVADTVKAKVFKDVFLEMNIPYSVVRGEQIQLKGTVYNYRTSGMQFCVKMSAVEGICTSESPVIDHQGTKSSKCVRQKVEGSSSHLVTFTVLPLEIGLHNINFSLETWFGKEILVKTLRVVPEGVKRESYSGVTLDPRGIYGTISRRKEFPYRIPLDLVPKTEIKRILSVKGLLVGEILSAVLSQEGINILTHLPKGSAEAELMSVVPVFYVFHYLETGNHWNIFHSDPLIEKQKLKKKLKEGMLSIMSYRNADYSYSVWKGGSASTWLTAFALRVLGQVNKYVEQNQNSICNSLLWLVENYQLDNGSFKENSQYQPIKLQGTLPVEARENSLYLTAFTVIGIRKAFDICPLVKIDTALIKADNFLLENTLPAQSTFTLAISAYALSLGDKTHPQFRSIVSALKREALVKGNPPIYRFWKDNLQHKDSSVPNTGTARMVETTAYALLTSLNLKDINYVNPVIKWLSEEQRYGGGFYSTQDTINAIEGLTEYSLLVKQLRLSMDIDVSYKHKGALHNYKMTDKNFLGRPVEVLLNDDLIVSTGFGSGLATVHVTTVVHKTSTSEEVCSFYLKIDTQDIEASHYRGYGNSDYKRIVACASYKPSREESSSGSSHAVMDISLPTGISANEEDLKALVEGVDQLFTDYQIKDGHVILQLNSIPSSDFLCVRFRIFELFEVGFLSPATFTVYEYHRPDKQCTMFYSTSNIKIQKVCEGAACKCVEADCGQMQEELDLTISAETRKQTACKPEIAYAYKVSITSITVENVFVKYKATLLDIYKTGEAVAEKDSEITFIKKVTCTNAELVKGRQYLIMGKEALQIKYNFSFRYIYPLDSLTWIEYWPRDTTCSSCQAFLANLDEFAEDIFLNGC
# T1 sequence (P01031 19-673 limits assumed): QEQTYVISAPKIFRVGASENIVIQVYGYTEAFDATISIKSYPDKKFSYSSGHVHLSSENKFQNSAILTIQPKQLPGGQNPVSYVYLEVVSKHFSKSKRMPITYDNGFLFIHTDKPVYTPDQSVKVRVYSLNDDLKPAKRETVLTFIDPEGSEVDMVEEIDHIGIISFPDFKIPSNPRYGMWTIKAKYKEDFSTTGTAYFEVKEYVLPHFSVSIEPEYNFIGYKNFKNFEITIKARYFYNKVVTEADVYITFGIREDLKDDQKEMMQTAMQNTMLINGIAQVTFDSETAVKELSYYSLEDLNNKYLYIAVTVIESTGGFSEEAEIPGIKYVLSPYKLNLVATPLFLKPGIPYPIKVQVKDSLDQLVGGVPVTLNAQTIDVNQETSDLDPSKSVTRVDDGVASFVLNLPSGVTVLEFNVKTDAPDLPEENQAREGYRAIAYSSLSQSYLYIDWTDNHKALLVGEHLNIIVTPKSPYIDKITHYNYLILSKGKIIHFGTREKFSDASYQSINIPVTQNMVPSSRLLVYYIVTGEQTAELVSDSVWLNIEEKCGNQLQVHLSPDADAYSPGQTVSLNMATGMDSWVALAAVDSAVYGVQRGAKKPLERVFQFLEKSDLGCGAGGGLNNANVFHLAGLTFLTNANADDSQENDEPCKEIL
SMILES,competition for / affinity for C5 in words (C5 [1]),stability in human plasma in words [2],"Percent remaining at time 0 hrs ([2]; 37° C., 10 μM, 0 hrs) [%]","time after dosing at which hemolytic activity returned to normal levels (primate C5 protein; 3 mg/kg IV, plasma levels fell below 100 ng/ml) [h]","plasma concentration with clear inhibition of complement-mediated hemolysis (primate C5 protein; ex vivo, plasma diluted 1:100, after 3 mg/kg IV) [ng/mL]","bioavailability of dose, based on AUC [3]",inhibitory activity in ex vivo hemolysis assays (rat C5 [4]),average AUC∞ [5] [ng·h/mL],mean clearance rate [5] [mL/min/kg],mean terminal half-life [5] [h],mean volume of distribution [5] [L/kg],binding to rat C5 (rat C5 [6]),IC50 (C5 [7]) [nM]
"CCC[C@H](NC(=O)[C@@H]1CSCc2ccc(cc2)CSC[C@H](NC(=O)[C@H](CCC)NC(C)=O)C(=O)N[C@@H](c2ccccc2)C(=O)N[C@@H]([C@@H](C)O)C(=O)N[C@@H](Cc2c[nH]c3ncccc23)C(=O)N[C@@H](CCC(=O)O)C(=O)N[C@@H](Cc2ccc(O)cc2)C(=O)N(C)[C@@H](CO)C(=O)N[C@@H](Cc2c[nH]cn2)C(=O)N1)C(N)=O [Compound R3050, [pXylyl(2,10)]Ac-Nvl-C-Phg-T-azaTrp-E-Y-(N—Me)S-H-C-Nvl-NH2] (Ac-[Nva]C[Phg]T[Trp(7-aza)]EY[NMeS]HC[Nva]-NH2; linker 2-10 via pXylylene)",relatively strong affinity,highly stable,100,,,,,,,,,,
"CCC[C@H](NC(=O)[C@@H](NC(=O)[C@@H]1CCCN1C(=O)[C@H](Cc1ccc(O)cc1)NC(=O)[C@H](CCC(=O)O)NC(=O)[C@H](Cc1c[nH]c2ncccc12)NC(=O)[C@H](Cc1ccc(O)cc1)NC(=O)[C@@H](NC(=O)[C@H](CC(=O)O)NC(=O)[C@@H]1CSCc2cccc(c2)CSC[C@H](NC(C)=O)C(=O)N[C@@H](C(C)C)C(=O)N[C@@H](CCC(=O)O)C(=O)N[C@@H](CCCNC(=N)N)C(=O)N[C@@H](Cc2ccccc2)C(=O)N1)C(C)(C)C)C1CCCCC1)C(N)=O [Compound R3152, [mXylyl(1,6)]Ac-C-V-E-R-F-C-D-Tbg-Y-azaTrp-E-Y-P-Chg-Nvl-NH2]",,,,48,> 200,approximately 65%,very little inhibitory activity,23319 ± 2120,2.15 ± 0.203,10.9 ± 0.8,1.49 ± 0.152,do not bind,
"CCC[C@H](NC(=O)[C@@H](NC(=O)[C@@H]1CCCN1C(=O)[C@H](Cc1ccc(O)cc1)NC(=O)[C@H](CCC(=O)O)NC(=O)[C@H](Cc1c[nH]c2ncccc12)NC(=O)[C@H](Cc1ccc(O)cc1)NC(=O)[C@@H](NC(=O)[C@H](CC(=O)O)NC(=O)[C@@H]1CSCc2cccc(c2)CSC[C@H](NC(C)=O)C(=O)N[C@@H](C(C)C)C(=O)N[C@@H](CCC(=O)O)C(=O)N[C@@H](CCCNC(=N)N)C(=O)N[C@@H](Cc2ccccc2)C(=O)N1)C(C)(C)C)C1CCCCC1)C(=O)O [Compound R3201, [mXylyl(1,6)]Ac-C-V-E-R-F-C-D-Tbg-Y-azaTrp-E-Y-P-Chg-Nvl]",,,,,,,,,,,,do not bind,7.7

# Reference: patent publication US11707503B2, “Modulators of complement activity” (Ra Pharmaceuticals, Inc., priority 2015, dated 2023)
